Reference: US20230017045A1, “PYRIDINE AND PYRIMIDINE CARBOXYLATE HERBICIDES AND METHODS OF USE THEREOF” (Dow AgroSciences LLC, priority 2017, published 2023)

These compounds were tested on test plant species (assay: Post-emergent herbicidal activity test (greenhouse, foliar spray, visual growth reduction)). Conditions: post-emergence, 336 h, ALOMY: blackgrass (Alopecurus myosuroides), 140 g ai/ha, 14 days after application, read-out: Visual Growth Reduction (%) 14 Days After Application, ALOMY.
Type: in vivo
Outline: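 Visual scoring 14 d after treatment (0 = no injury, 100 = complete control) against nontreated and solvent-blank plants gave percent growth reduction. Foliar application used a track sprayer delivering 187 L/ha to seedlings at first or second true leaf stage, grown at 23–29 °C day, ~15 h photoperiod.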

SMILES | pest or weed control at 140 g/ha
COC(=O)c1nc(-c2ccc(C(F)(F)F)c(SC)c2Cl)ccc1Cl [F121, methyl 3-chloro-6-(2-chloro-3-(methylthio)-4-(trifluoromethyl)phenyl)picolinate] | 0 to 29%
COC(=O)c1nc(-c2cc(Cl)cnc2OC)ccc1Cl [F129, Methyl 5,5′-dichloro-2′-methoxy-[2,3′-bipyridine-6-carboxylate] | 0 to 29%
O=C(O)c1nc(-c2cc3c(cc2Cl)OCO3)ccc1Cl [F148, 3-Chloro-6-(6-chlorobenzo[d][1,3]dioxol-5-yl)picolinic acid] | 0 to 29%
O=C(O)c1nc(-c2cc3c(cc2Cl)OC(F)(F)O3)ccc1Cl [F126] | 0 to 29%

Same assay, conditions: post-emergence, 336 h, AMARE: redroot pigweed (Amaranthus retroflexus), 140 g ai/ha, 14 days after application, read-out: Visual Growth Reduction (%) 14 Days After Application, AMARE

SMILES | pest or weed control at 140 g/ha
COC(=O)c1nc(-c2ccc(C(F)(F)F)c(SC)c2Cl)ccc1Cl [F121, methyl 3-chloro-6-(2-chloro-3-(methylthio)-4-(trifluoromethyl)phenyl)picolinate] | 30 to 44%
COC(=O)c1nc(-c2cc(Cl)cnc2OC)ccc1Cl [F129, Methyl 5,5′-dichloro-2′-methoxy-[2,3′-bipyridine-6-carboxylate] | 0 to 29%
O=C(O)c1nc(-c2cc3c(cc2Cl)OCO3)ccc1Cl [F148, 3-Chloro-6-(6-chlorobenzo[d][1,3]dioxol-5-yl)picolinic acid] | 75 to 84%
O=C(O)c1nc(-c2cc3c(cc2Cl)OC(F)(F)O3)ccc1Cl [F126] | 95 to 100%

Same assay, conditions: post-emergence, 336 h, AVEFA: wild oat (Avena fatua), 140 g ai/ha, 14 days after application, read-out: Visual Growth Reduction (%) 14 Days After Application, AVEFA

SMILES | pest or weed control at 140 g/ha
COC(=O)c1nc(-c2ccc(C(F)(F)F)c(SC)c2Cl)ccc1Cl [F121, methyl 3-chloro-6-(2-chloro-3-(methylthio)-4-(trifluoromethyl)phenyl)picolinate] | 0 to 29%
COC(=O)c1nc(-c2cc(Cl)cnc2OC)ccc1Cl [F129, Methyl 5,5′-dichloro-2′-methoxy-[2,3′-bipyridine-6-carboxylate] | 0 to 29%
O=C(O)c1nc(-c2cc3c(cc2Cl)OCO3)ccc1Cl [F148, 3-Chloro-6-(6-chlorobenzo[d][1,3]dioxol-5-yl)picolinic acid] | 0 to 29%
O=C(O)c1nc(-c2cc3c(cc2Cl)OC(F)(F)O3)ccc1Cl [F126] | 0 to 29%

Same assay, conditions: post-emergence, 336 h, CHEAL: lambsquarters (Chenopodium album), 140 g ai/ha, 14 days after application, read-out: Visual Growth Reduction (%) 14 Days After Application, CHEAL

SMILES | pest or weed control at 140 g/ha
COC(=O)c1nc(-c2ccc(C(F)(F)F)c(SC)c2Cl)ccc1Cl [F121, methyl 3-chloro-6-(2-chloro-3-(methylthio)-4-(trifluoromethyl)phenyl)picolinate] | 0 to 29%
COC(=O)c1nc(-c2cc(Cl)cnc2OC)ccc1Cl [F129, Methyl 5,5′-dichloro-2′-methoxy-[2,3′-bipyridine-6-carboxylate] | 0 to 29%
O=C(O)c1nc(-c2cc3c(cc2Cl)OCO3)ccc1Cl [F148, 3-Chloro-6-(6-chlorobenzo[d][1,3]dioxol-5-yl)picolinic acid] | 75 to 84%
O=C(O)c1nc(-c2cc3c(cc2Cl)OC(F)(F)O3)ccc1Cl [F126] | 85 to 94%

Same assay, conditions: post-emergence, 336 h, CIRAR: canada thistle (Cirsium arvense), 140 g ai/ha, 14 days after application, read-out: Visual Growth Reduction (%) 14 Days After Application, CIRAR

SMILES | pest or weed control at 140 g/ha
COC(=O)c1nc(-c2ccc(C(F)(F)F)c(SC)c2Cl)ccc1Cl [F121, methyl 3-chloro-6-(2-chloro-3-(methylthio)-4-(trifluoromethyl)phenyl)picolinate] | 0 to 29%
COC(=O)c1nc(-c2cc(Cl)cnc2OC)ccc1Cl [F129, Methyl 5,5′-dichloro-2′-methoxy-[2,3′-bipyridine-6-carboxylate] | 0 to 29%
O=C(O)c1nc(-c2cc3c(cc2Cl)OCO3)ccc1Cl [F148, 3-Chloro-6-(6-chlorobenzo[d][1,3]dioxol-5-yl)picolinic acid] | 0 to 29%
O=C(O)c1nc(-c2cc3c(cc2Cl)OC(F)(F)O3)ccc1Cl [F126] | 75 to 84%

Same assay, conditions: post-emergence, 336 h, CYPES: yellow nutsedge (Cyperus esculentus), 140 g ai/ha, 14 days after application, read-out: Visual Growth Reduction (%) 14 Days After Application, CYPES

SMILES | pest or weed control at 140 g/ha
COC(=O)c1nc(-c2ccc(C(F)(F)F)c(SC)c2Cl)ccc1Cl [F121, methyl 3-chloro-6-(2-chloro-3-(methylthio)-4-(trifluoromethyl)phenyl)picolinate] | 0 to 29%
COC(=O)c1nc(-c2cc(Cl)cnc2OC)ccc1Cl [F129, Methyl 5,5′-dichloro-2′-methoxy-[2,3′-bipyridine-6-carboxylate] | 0 to 29%
O=C(O)c1nc(-c2cc3c(cc2Cl)OC(F)(F)O3)ccc1Cl [F126] | 0 to 29%

Same assay, conditions: post-emergence, 336 h, DIGSA: crabgrass (Digitaria sanguinalis), 140 g ai/ha, 14 days after application, read-out: Visual Growth Reduction (%) 14 Days After Application, DIGSA

SMILES | pest or weed control at 140 g/ha
COC(=O)c1nc(-c2ccc(C(F)(F)F)c(SC)c2Cl)ccc1Cl [F121, methyl 3-chloro-6-(2-chloro-3-(methylthio)-4-(trifluoromethyl)phenyl)picolinate] | 0 to 29%
COC(=O)c1nc(-c2cc(Cl)cnc2OC)ccc1Cl [F129, Methyl 5,5′-dichloro-2′-methoxy-[2,3′-bipyridine-6-carboxylate] | 0 to 29%
O=C(O)c1nc(-c2cc3c(cc2Cl)OCO3)ccc1Cl [F148, 3-Chloro-6-(6-chlorobenzo[d][1,3]dioxol-5-yl)picolinic acid] | 0 to 29%
O=C(O)c1nc(-c2cc3c(cc2Cl)OC(F)(F)O3)ccc1Cl [F126] | 85 to 94%

Same assay, conditions: post-emergence, 336 h, ECHCG: barnyardgrass (Echinochloa crus-galli), 140 g ai/ha, 14 days after application, read-out: Visual Growth Reduction (%) 14 Days After Application, ECHCG

SMILES | pest or weed control at 140 g/ha
COC(=O)c1nc(-c2ccc(C(F)(F)F)c(SC)c2Cl)ccc1Cl [F121, methyl 3-chloro-6-(2-chloro-3-(methylthio)-4-(trifluoromethyl)phenyl)picolinate] | 0 to 29%
COC(=O)c1nc(-c2cc(Cl)cnc2OC)ccc1Cl [F129, Methyl 5,5′-dichloro-2′-methoxy-[2,3′-bipyridine-6-carboxylate] | 0 to 29%
O=C(O)c1nc(-c2cc3c(cc2Cl)OCO3)ccc1Cl [F148, 3-Chloro-6-(6-chlorobenzo[d][1,3]dioxol-5-yl)picolinic acid] | 0 to 29%
O=C(O)c1nc(-c2cc3c(cc2Cl)OC(F)(F)O3)ccc1Cl [F126] | 60 to 74%

Same assay, conditions: post-emergence, 336 h, IPOHE: ivy-leaf morning glory (Ipomoea hederacea), 140 g ai/ha, 14 days after application, read-out: Visual Growth Reduction (%) 14 Days After Application, IPOHE

SMILES | pest or weed control at 140 g/ha
COC(=O)c1nc(-c2ccc(C(F)(F)F)c(SC)c2Cl)ccc1Cl [F121, methyl 3-chloro-6-(2-chloro-3-(methylthio)-4-(trifluoromethyl)phenyl)picolinate] | 0 to 29%
COC(=O)c1nc(-c2cc(Cl)cnc2OC)ccc1Cl [F129, Methyl 5,5′-dichloro-2′-methoxy-[2,3′-bipyridine-6-carboxylate] | 0 to 29%
O=C(O)c1nc(-c2cc3c(cc2Cl)OCO3)ccc1Cl [F148, 3-Chloro-6-(6-chlorobenzo[d][1,3]dioxol-5-yl)picolinic acid] | 30 to 44%
O=C(O)c1nc(-c2cc3c(cc2Cl)OC(F)(F)O3)ccc1Cl [F126] | 95 to 100%

Same assay, conditions: post-emergence, 336 h, KCHSC: kochia (Bassia scoparia), 140 g ai/ha, 14 days after application, read-out: Visual Growth Reduction (%) 14 Days After Application, KCHSC

SMILES | pest or weed control at 140 g/ha
COC(=O)c1nc(-c2ccc(C(F)(F)F)c(SC)c2Cl)ccc1Cl [F121, methyl 3-chloro-6-(2-chloro-3-(methylthio)-4-(trifluoromethyl)phenyl)picolinate] | 0 to 29%
COC(=O)c1nc(-c2cc(Cl)cnc2OC)ccc1Cl [F129, Methyl 5,5′-dichloro-2′-methoxy-[2,3′-bipyridine-6-carboxylate] | 0 to 29%
O=C(O)c1nc(-c2cc3c(cc2Cl)OCO3)ccc1Cl [F148, 3-Chloro-6-(6-chlorobenzo[d][1,3]dioxol-5-yl)picolinic acid] | 0 to 29%
O=C(O)c1nc(-c2cc3c(cc2Cl)OC(F)(F)O3)ccc1Cl [F126] | 60 to 74%

Same assay, conditions: post-emergence, 336 h, ORYSA: rice (Oryza sativa), 140 g ai/ha, 14 days after application, read-out: Visual Growth Reduction (%) 14 Days After Application, ORYSA

SMILES | pest or weed control at 140 g/ha
COC(=O)c1nc(-c2ccc(C(F)(F)F)c(SC)c2Cl)ccc1Cl [F121, methyl 3-chloro-6-(2-chloro-3-(methylthio)-4-(trifluoromethyl)phenyl)picolinate] | 0 to 29%
COC(=O)c1nc(-c2cc(Cl)cnc2OC)ccc1Cl [F129, Methyl 5,5′-dichloro-2′-methoxy-[2,3′-bipyridine-6-carboxylate] | 0 to 29%
O=C(O)c1nc(-c2cc3c(cc2Cl)OCO3)ccc1Cl [F148, 3-Chloro-6-(6-chlorobenzo[d][1,3]dioxol-5-yl)picolinic acid] | 0 to 29%
O=C(O)c1nc(-c2cc3c(cc2Cl)OC(F)(F)O3)ccc1Cl [F126] | 0 to 29%

Same assay, conditions: post-emergence, 336 h, SETFA: giant foxtail (Setaria faberi), 140 g ai/ha, 14 days after application, read-out: Visual Growth Reduction (%) 14 Days After Application, SETFA

SMILES | pest or weed control at 140 g/ha
COC(=O)c1nc(-c2ccc(C(F)(F)F)c(SC)c2Cl)ccc1Cl [F121, methyl 3-chloro-6-(2-chloro-3-(methylthio)-4-(trifluoromethyl)phenyl)picolinate] | 0 to 29%
COC(=O)c1nc(-c2cc(Cl)cnc2OC)ccc1Cl [F129, Methyl 5,5′-dichloro-2′-methoxy-[2,3′-bipyridine-6-carboxylate] | 0 to 29%
O=C(O)c1nc(-c2cc3c(cc2Cl)OCO3)ccc1Cl [F148, 3-Chloro-6-(6-chlorobenzo[d][1,3]dioxol-5-yl)picolinic acid] | 0 to 29%
O=C(O)c1nc(-c2cc3c(cc2Cl)OC(F)(F)O3)ccc1Cl [F126] | 60 to 74%

Same assay, conditions: post-emergence, 336 h, SORVU: grain sorghum (Sorghum vulgare), 140 g ai/ha, 14 days after application, read-out: Visual Growth Reduction (%) 14 Days After Application, SORVU

SMILES | pest or weed control at 140 g/ha
COC(=O)c1nc(-c2ccc(C(F)(F)F)c(SC)c2Cl)ccc1Cl [F121, methyl 3-chloro-6-(2-chloro-3-(methylthio)-4-(trifluoromethyl)phenyl)picolinate] | 0 to 29%
COC(=O)c1nc(-c2cc(Cl)cnc2OC)ccc1Cl [F129, Methyl 5,5′-dichloro-2′-methoxy-[2,3′-bipyridine-6-carboxylate] | 0 to 29%
O=C(O)c1nc(-c2cc3c(cc2Cl)OCO3)ccc1Cl [F148, 3-Chloro-6-(6-chlorobenzo[d][1,3]dioxol-5-yl)picolinic acid] | 0 to 29%
O=C(O)c1nc(-c2cc3c(cc2Cl)OC(F)(F)O3)ccc1Cl [F126] | 75 to 84%

Same assay, conditions: post-emergence, 336 h, STEME: common chickweed (Stellaria media), 140 g ai/ha, 14 days after application, read-out: Visual Growth Reduction (%) 14 Days After Application, STEME

SMILES | pest or weed control at 140 g/ha
COC(=O)c1nc(-c2ccc(C(F)(F)F)c(SC)c2Cl)ccc1Cl [F121, methyl 3-chloro-6-(2-chloro-3-(methylthio)-4-(trifluoromethyl)phenyl)picolinate] | 0 to 29%
COC(=O)c1nc(-c2cc(Cl)cnc2OC)ccc1Cl [F129, Methyl 5,5′-dichloro-2′-methoxy-[2,3′-bipyridine-6-carboxylate] | 0 to 29%
O=C(O)c1nc(-c2cc3c(cc2Cl)OCO3)ccc1Cl [F148, 3-Chloro-6-(6-chlorobenzo[d][1,3]dioxol-5-yl)picolinic acid] | 0 to 29%
O=C(O)c1nc(-c2cc3c(cc2Cl)OC(F)(F)O3)ccc1Cl [F126] | 0 to 29%

Same assay, conditions: post-emergence, 336 h, TRZAS: wheat, spring (Triticum aestivum), 140 g ai/ha, 14 days after application, read-out: Visual Growth Reduction (%) 14 Days After Application, TRZAS

SMILES | pest or weed control at 140 g/ha
COC(=O)c1nc(-c2ccc(C(F)(F)F)c(SC)c2Cl)ccc1Cl [F121, methyl 3-chloro-6-(2-chloro-3-(methylthio)-4-(trifluoromethyl)phenyl)picolinate] | 0 to 29%
COC(=O)c1nc(-c2cc(Cl)cnc2OC)ccc1Cl [F129, Methyl 5,5′-dichloro-2′-methoxy-[2,3′-bipyridine-6-carboxylate] | 0 to 29%
O=C(O)c1nc(-c2cc3c(cc2Cl)OCO3)ccc1Cl [F148, 3-Chloro-6-(6-chlorobenzo[d][1,3]dioxol-5-yl)picolinic acid] | 0 to 29%
O=C(O)c1nc(-c2cc3c(cc2Cl)OC(F)(F)O3)ccc1Cl [F126] | 75 to 84%
